# In US20120190752A1, “EXO-S-MECAMYLAMINE METHOD, USE, AND COMPOUND FOR TREATMENT” (Targacept Inc., priority 2009, published 2012):
# System: subjects with major depressive disorder (MDD) who were inadequate responders to citalopram
# Assay: HAMD-17 total score, Phase 2b trial of TC-5214 as add-on to citalopram
# Assay type: in vivo, human
# Settings: for HAMD-17 total score, observed Mean / HAMD-17 total score, observed Median / HAMD-17 Remission (Score ≦7): Subjects with Remission (number) / HAMD-17 Remission (Score ≦7): Subjects with Remission (percentage) / HAMD-17 Remission (Score ≦7): Subjects without Remission (number) / HAMD-17 Remission (Score ≦7): Subjects without Remission (percentage) / HAMD-17 Remission (Score ≦10): Subjects with Remission (number) / HAMD-17 Remission (Score ≦10): Subjects with Remission (percentage) / HAMD-17 Remission (Score ≦10): Subjects without Remission (number) / HAMD-17 Remission (Score ≦10): Subjects without Remission (percentage) / HAMD-17 reduction from baseline ≧50%: Subjects with Response (number) / HAMD-17 reduction from baseline ≧50%: Subjects with Response (percentage) / HAMD-17 reduction from baseline ≧50%: Subjects without Response (number) / HAMD-17 reduction from baseline ≧50%: Subjects without Response (percentage) / HAMD-17 Adjusted Mean change / HAMD-17 Mean Difference between TC-5214 and Placebo: PP; for primary outcome: mean change between TC-5214 and placebo from baseline on HAM-D (HAMD-17 total score): intent to treat, Week 8 to Week 16 LOCF, result in words
# From the text: The Hamilton Rating Scale for Depression (HRSD), also known as the Hamilton Depression Rating Scale (HDRS) or abbreviated to HAM-D or HAMD, is a multiple choice questionnaire that clinicians may use to rate the severity of a patient's major depression (Hamilton 1967). The questionnaire rates the severity of symptoms observed in depression such as low mood, insomnia, agitation, anxiety and weight loss. The questionnaire is presently one of the most commonly used scales for rating depression in medical research. The clinician chooses the possible responses to each question by interviewing the patient and by observing the patient's symptoms. Each question has multiple possible responses which increase in severity. Although Hamilton's original scale had 17 questions, others later developed HRSD scales with different numbers of questions, the greatest of which is 29 (HRSD-29). Clinicians can use the HRSD in place of, or in conjunction with, the Montgomery-Åsberg Depression Rating Scale (MADRS), the Beck Depression Inventory (BDI), the Zung Self-Rating Depression Scale, the Wechsler Depression Rating Scale, the […] Depression Rating Scale, the Inventory of Depressive Symptomatology (IDS), the Quick Inventory of Depressive Symptomatology (QIDS), and other questionnaires. […] The results on all of the trial's secondary efficacy measures, including assessments of depression, irritability, disability, cognition, severity of illness and global improvement, were also statistically significant in favor of TC-5214 on an intent to treat basis. The Phase 2b trial of TC-5214 as an augmentation treatment for MDD was a two-phase trial conducted at 20 sites in India and three sites in the United States. In the first phase, 579 subjects with MDD received first-line treatment with citalopram hydrobromide for eight weeks, 20 mg daily for the first four weeks and 40 mg daily for the next four weeks. Citalopram, an approved treatment for MDD marketed in the United States as […]®, is from the drug class known as selective serotonin reuptake inhibitors. At the end of the eight weeks, subjects whose MADRS score had improved less than 50 percent and whose CGI-SI score was no lower than 4 were considered partial or non responders and randomized into the double blind second phase of the trial. In the double blind second phase, subjects continued their citalopram treatment and also received either add-on TC-5214 or add-on placebo for an additional eight weeks. The daily dosage of TC-5214 was initially 2 mg and could be increased at the discretion of the investigator to 4 mg and to 8 mg based on tolerability and therapeutic response. The primary outcome measure for the trial was mean change between TC-5214 and placebo from double blind baseline as measured by HAM-D at week 16. The intent to treat dataset included 265 subjects in the second phase. In more detail, a multi-center double-blind, randomized, placebo-controlled, parallel group, flexible dose titration study of TC-5214 as adjunctive therapy in subjects with major depressive disorder (MDD) who were inadequate responders to citalopram was conducted in centers in the US and India. The study consisted of a screening period, baseline/washout period, open-label phase, double-blind phase, and a follow-up visit. Subject participation in the study could continue for up to 16 weeks of treatment. Following a washout period of up to 28 days for other antidepressants, subjects with MDD and a MADRS total score >/=28 and a Clinical Global Impression-Severity (CGI-S) score >/=4 were enrolled on Day 1 into an open-label citalopram-only phase of the study. This phase lasted 8 weeks, with citalopram (CIT) dose increased from a once-daily dose of 20 mg (Day 1 through Week 4) to 40 mg (Week 4 through Week 8). A total of 579 subjects entered the open-label citalopram phase. […]
# [1] = Double Blind Week 8 (Baseline), before TC-5214
# [2] = Double Blind Week 16 LOCF (change from Week 8)
# [3] = Double Blind Week 18 (Follow-up)
# [4] = Double Blind Week 18 LOCF (Follow-up)
# [5] = Double Blind Week 18 LOCF (Follow-up), change from Week 16
structure (smiles),measurement,setting,value
"CNC1(C)C2CCC(C2)C1(C)C (stereo in doubt) [TC-5214, (S)—N,2,3,3-tetramethylnorbornan-2-amine]",HAMD-17 Adj. Mean change,"ITT, change from Week 8 (double-blind baseline) to Week 16 LOCF, add-on to citalopram",−13.75
same,"onset of separation from placebo, remission rates HAMD≦7 (FIG. 1)","ITT, week of double-blind treatment",≤ 2 week
same,"HAMD-17 total score, observed Mean",[1],23.7
same,"HAMD-17 total score, observed Median",[1],24.0
same,HAMD-17 Remission (Score ≦7): Subjects with Remission (number),Double Blind Week 9,1
same,HAMD-17 Remission (Score ≦7): Subjects with Remission (percentage),Double Blind Week 9,(1%)
same,HAMD-17 Remission (Score ≦7): Subjects without Remission (number),Double Blind Week 9,112
same,HAMD-17 Remission (Score ≦7): Subjects without Remission (percentage),Double Blind Week 9,(99%)
same,HAMD-17 Remission (Score ≦10): Subjects with Remission (number),Double Blind Week 9,3
same,HAMD-17 Remission (Score ≦10): Subjects with Remission (percentage),Double Blind Week 9,(3%)
same,HAMD-17 Remission (Score ≦10): Subjects without Remission (number),Double Blind Week 9,110
same,HAMD-17 Remission (Score ≦10): Subjects without Remission (percentage),Double Blind Week 9,(97%)
same,HAMD-17 reduction from baseline ≧50%: Subjects with Response (number),Double Blind Week 9,3
same,HAMD-17 reduction from baseline ≧50%: Subjects with Response (percentage),Double Blind Week 9,(3%)
same,HAMD-17 reduction from baseline ≧50%: Subjects without Response (number),Double Blind Week 9,110
same,HAMD-17 reduction from baseline ≧50%: Subjects without Response (percentage),Double Blind Week 9,(97%)
same,HAMD-17 Remission (Score ≦7): Subjects with Remission (number),Double Blind Week 10,4
same,HAMD-17 Remission (Score ≦7): Subjects with Remission (percentage),Double Blind Week 10,(4%)
same,HAMD-17 Remission (Score ≦7): Subjects without Remission (number),Double Blind Week 10,109
same,HAMD-17 Remission (Score ≦7): Subjects without Remission (percentage),Double Blind Week 10,(96%)
same,HAMD-17 Remission (Score ≦10): Subjects with Remission (number),Double Blind Week 10,16
same,HAMD-17 Remission (Score ≦10): Subjects with Remission (percentage),Double Blind Week 10,(14%)
same,HAMD-17 Remission (Score ≦10): Subjects without Remission (number),Double Blind Week 10,97
same,HAMD-17 Remission (Score ≦10): Subjects without Remission (percentage),Double Blind Week 10,(86%)
same,HAMD-17 reduction from baseline ≧50%: Subjects with Response (number),Double Blind Week 10,20
same,HAMD-17 reduction from baseline ≧50%: Subjects with Response (percentage),Double Blind Week 10,(18%)
same,HAMD-17 reduction from baseline ≧50%: Subjects without Response (number),Double Blind Week 10,93
same,HAMD-17 reduction from baseline ≧50%: Subjects without Response (percentage),Double Blind Week 10,(82%)
same,HAMD-17 Remission (Score ≦7): Subjects with Remission (number),Double Blind Week 12,16
same,HAMD-17 Remission (Score ≦7): Subjects with Remission (percentage),Double Blind Week 12,(14%)
same,HAMD-17 Remission (Score ≦7): Subjects without Remission (number),Double Blind Week 12,97
same,HAMD-17 Remission (Score ≦7): Subjects without Remission (percentage),Double Blind Week 12,(86%)
same,HAMD-17 Remission (Score ≦10): Subjects with Remission (number),Double Blind Week 12,36
same,HAMD-17 Remission (Score ≦10): Subjects with Remission (percentage),Double Blind Week 12,(32%)
same,HAMD-17 Remission (Score ≦10): Subjects without Remission (number),Double Blind Week 12,77
same,HAMD-17 Remission (Score ≦10): Subjects without Remission (percentage),Double Blind Week 12,(68%)
same,HAMD-17 reduction from baseline ≧50%: Subjects with Response (number),Double Blind Week 12,40
same,HAMD-17 reduction from baseline ≧50%: Subjects with Response (percentage),Double Blind Week 12,(35%)
same,HAMD-17 reduction from baseline ≧50%: Subjects without Response (number),Double Blind Week 12,73
same,HAMD-17 reduction from baseline ≧50%: Subjects without Response (percentage),Double Blind Week 12,(65%)
same,HAMD-17 Remission (Score ≦7): Subjects with Remission (number),Double Blind Week 14,35
same,HAMD-17 Remission (Score ≦7): Subjects with Remission (percentage),Double Blind Week 14,(31%)
same,HAMD-17 Remission (Score ≦7): Subjects without Remission (number),Double Blind Week 14,78
same,HAMD-17 Remission (Score ≦7): Subjects without Remission (percentage),Double Blind Week 14,(69%)
same,HAMD-17 Remission (Score ≦10): Subjects with Remission (number),Double Blind Week 14,53
same,HAMD-17 Remission (Score ≦10): Subjects with Remission (percentage),Double Blind Week 14,(47%)
same,HAMD-17 Remission (Score ≦10): Subjects without Remission (number),Double Blind Week 14,60
same,HAMD-17 Remission (Score ≦10): Subjects without Remission (percentage),Double Blind Week 14,(53%)
same,HAMD-17 reduction from baseline ≧50%: Subjects with Response (number),Double Blind Week 14,67
same,HAMD-17 reduction from baseline ≧50%: Subjects with Response (percentage),Double Blind Week 14,(59%)
same,HAMD-17 reduction from baseline ≧50%: Subjects without Response (number),Double Blind Week 14,46
same,HAMD-17 reduction from baseline ≧50%: Subjects without Response (percentage),Double Blind Week 14,(41%)
same,HAMD-17 Remission (Score ≦7): Subjects with Remission (number),Double Blind Week 16,50
same,HAMD-17 Remission (Score ≦7): Subjects with Remission (percentage),Double Blind Week 16,(44%)
same,HAMD-17 Remission (Score ≦7): Subjects without Remission (number),Double Blind Week 16,63
same,HAMD-17 Remission (Score ≦7): Subjects without Remission (percentage),Double Blind Week 16,(56%)
same,HAMD-17 Remission (Score ≦10): Subjects with Remission (number),Double Blind Week 16,75
same,HAMD-17 Remission (Score ≦10): Subjects with Remission (percentage),Double Blind Week 16,(66%)
same,HAMD-17 Remission (Score ≦10): Subjects without Remission (number),Double Blind Week 16,38
same,HAMD-17 Remission (Score ≦10): Subjects without Remission (percentage),Double Blind Week 16,(34%)
same,HAMD-17 reduction from baseline ≧50%: Subjects with Response (number),Double Blind Week 16,84
same,HAMD-17 reduction from baseline ≧50%: Subjects with Response (percentage),Double Blind Week 16,(74%)
same,HAMD-17 reduction from baseline ≧50%: Subjects without Response (number),Double Blind Week 16,29
same,HAMD-17 reduction from baseline ≧50%: Subjects without Response (percentage),Double Blind Week 16,(26%)
same,"HAMD-17 total score, observed Mean",Double Blind Week 16 LOCF,9.1
same,"HAMD-17 total score, observed Median",Double Blind Week 16 LOCF,8.0
same,HAMD-17 Adjusted Mean change,[2],−14.64
same,HAMD-17 Mean Difference between TC-5214 and Placebo,[2],6.10
same,HAMD-17 Remission (Score ≦7): Subjects with Remission (number),[3],58
same,HAMD-17 Remission (Score ≦7): Subjects with Remission (percentage),[3],(51%)
same,HAMD-17 Remission (Score ≦7): Subjects without Remission (number),[3],55
same,HAMD-17 Remission (Score ≦7): Subjects without Remission (percentage),[3],(49%)
same,HAMD-17 Remission (Score ≦10): Subjects with Remission (number),[3],77
same,HAMD-17 Remission (Score ≦10): Subjects with Remission (percentage),[3],(68%)
same,HAMD-17 Remission (Score ≦10): Subjects without Remission (number),[3],36
same,HAMD-17 Remission (Score ≦10): Subjects without Remission (percentage),[3],(32%)
same,HAMD-17 reduction from baseline ≧50%: Subjects with Response (number),[3],83
same,HAMD-17 reduction from baseline ≧50%: Subjects with Response (percentage),[3],(73%)
same,HAMD-17 reduction from baseline ≧50%: Subjects without Response (number),[3],30
same,HAMD-17 reduction from baseline ≧50%: Subjects without Response (percentage),[3],(27%)
same,"HAMD-17 total score, observed Mean",[4],8.6
same,"HAMD-17 total score, observed Median",[4],7.0
same,HAMD-17 Adjusted Mean change,[5],−0.83
same,HAMD-17 Mean Difference between TC-5214 and Placebo,[5],−0.01
same,primary outcome: mean change between TC-5214 and placebo from baseline on HAM-D (HAMD-17 total score),,highly statistically significant in favor of TC-5214
same,primary outcome: mean change between TC-5214 and placebo from baseline on HAM-D (HAMD-17 total score),listed as TC-5214-23,statistically significant favoring TC-5214-23
